Source: ChEMBL document CHEMBL1201862, “PubChem BioAssay data set” (2004)
Calls of active or inactive are those of the source.

How the values were obtained:
[1] = target: T1, Short transient receptor potential channel 4 (Mus musculus, UniProt Q9QUQ5); assay: block of DAMGO-driven TRPC4 calcium entry – cell-based, HEK293 TRPC4/mu-opioid, Fluo-4 calcium, dose response (AID 434942); type: functional;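 also: potency of inhibitors blocking the TRPC4 calcium response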
T1 sequence (Q9QUQ5 whole entry): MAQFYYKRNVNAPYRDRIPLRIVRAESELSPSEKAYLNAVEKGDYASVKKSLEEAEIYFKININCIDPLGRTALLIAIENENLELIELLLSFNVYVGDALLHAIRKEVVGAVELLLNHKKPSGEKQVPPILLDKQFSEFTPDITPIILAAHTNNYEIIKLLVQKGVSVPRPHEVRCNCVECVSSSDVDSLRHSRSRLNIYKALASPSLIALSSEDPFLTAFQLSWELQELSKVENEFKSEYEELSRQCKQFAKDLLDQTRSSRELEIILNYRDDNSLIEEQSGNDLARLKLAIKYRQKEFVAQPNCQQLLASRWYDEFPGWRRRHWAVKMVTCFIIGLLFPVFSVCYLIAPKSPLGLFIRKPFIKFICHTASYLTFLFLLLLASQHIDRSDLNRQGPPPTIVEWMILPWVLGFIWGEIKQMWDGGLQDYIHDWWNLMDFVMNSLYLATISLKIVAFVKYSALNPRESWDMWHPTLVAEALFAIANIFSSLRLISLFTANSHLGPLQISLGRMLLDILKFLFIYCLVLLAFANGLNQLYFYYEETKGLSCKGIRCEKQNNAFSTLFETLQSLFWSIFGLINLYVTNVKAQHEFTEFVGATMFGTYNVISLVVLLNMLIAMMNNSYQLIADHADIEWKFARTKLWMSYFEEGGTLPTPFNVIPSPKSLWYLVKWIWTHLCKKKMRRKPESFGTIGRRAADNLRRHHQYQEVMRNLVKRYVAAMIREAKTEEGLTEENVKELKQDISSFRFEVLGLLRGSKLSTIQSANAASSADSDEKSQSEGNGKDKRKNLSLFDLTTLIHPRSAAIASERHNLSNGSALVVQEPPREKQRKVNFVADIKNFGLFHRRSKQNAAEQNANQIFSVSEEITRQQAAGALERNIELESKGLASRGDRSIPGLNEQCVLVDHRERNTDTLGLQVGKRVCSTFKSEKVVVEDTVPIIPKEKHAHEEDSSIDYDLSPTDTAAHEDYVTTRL

[2] = target: T2, Zinc finger protein mex-5 (Caenorhabditis elegans, UniProt Q9XUB2); assay: potency of MEX-5 RNA-binding blockers – biochemical, C. elegans, fluorescence polarization, dose response (AID 1960)
T2 sequence (Q9XUB2 whole entry): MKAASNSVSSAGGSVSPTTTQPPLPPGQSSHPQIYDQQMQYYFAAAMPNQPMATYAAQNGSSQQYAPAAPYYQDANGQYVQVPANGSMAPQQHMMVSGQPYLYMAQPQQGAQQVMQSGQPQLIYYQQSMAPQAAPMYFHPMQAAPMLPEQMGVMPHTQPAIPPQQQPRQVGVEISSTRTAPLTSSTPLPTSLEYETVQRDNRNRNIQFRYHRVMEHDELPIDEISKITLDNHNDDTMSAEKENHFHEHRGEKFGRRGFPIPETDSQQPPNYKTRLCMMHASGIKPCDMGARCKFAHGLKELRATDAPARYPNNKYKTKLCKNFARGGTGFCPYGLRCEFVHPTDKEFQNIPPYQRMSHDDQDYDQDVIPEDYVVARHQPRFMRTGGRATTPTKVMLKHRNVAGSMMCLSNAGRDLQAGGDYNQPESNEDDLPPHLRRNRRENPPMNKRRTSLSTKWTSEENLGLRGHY

[3] = target: T3, RNA-binding protein pos-1 (Caenorhabditis elegans, UniProt G5EF15); assay: disruptors of C. elegans POS-1 RNA interaction – biochemical, fluorescence polarization, dose response (AID 1964);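 also: purified POS-1 fused to maltose binding protein made in E. coli; potency of compounds blocking POS-1 binding to fluorescent RNA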
T3 sequence (G5EF15 whole entry): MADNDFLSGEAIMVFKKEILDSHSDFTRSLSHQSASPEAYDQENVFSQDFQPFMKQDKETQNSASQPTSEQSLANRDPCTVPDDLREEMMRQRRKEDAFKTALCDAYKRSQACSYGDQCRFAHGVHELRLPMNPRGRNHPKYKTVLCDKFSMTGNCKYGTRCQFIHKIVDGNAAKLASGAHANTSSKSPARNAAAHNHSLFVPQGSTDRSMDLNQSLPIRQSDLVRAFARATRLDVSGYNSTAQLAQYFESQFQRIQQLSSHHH

Genome polyprotein = Genome polyprotein (dengue virus type 2, UniProt P29990); assay: flavivirus cap methylation enzyme inhibition – biochemical, confirmation dose response, primary screen (AID 588689); type: functional
Leucine aminopeptidase = target: T4, Leucine aminopeptidase (Plasmodium falciparum 3D7, UniProt Q8IL11); assay: P. falciparum M17LAP inhibitors, primary screen, biochemical, fluorogenic H-Leu-NHMec substrate, 1536-well (AID 1619); type: functional
T4 sequence (Q8IL11 whole entry): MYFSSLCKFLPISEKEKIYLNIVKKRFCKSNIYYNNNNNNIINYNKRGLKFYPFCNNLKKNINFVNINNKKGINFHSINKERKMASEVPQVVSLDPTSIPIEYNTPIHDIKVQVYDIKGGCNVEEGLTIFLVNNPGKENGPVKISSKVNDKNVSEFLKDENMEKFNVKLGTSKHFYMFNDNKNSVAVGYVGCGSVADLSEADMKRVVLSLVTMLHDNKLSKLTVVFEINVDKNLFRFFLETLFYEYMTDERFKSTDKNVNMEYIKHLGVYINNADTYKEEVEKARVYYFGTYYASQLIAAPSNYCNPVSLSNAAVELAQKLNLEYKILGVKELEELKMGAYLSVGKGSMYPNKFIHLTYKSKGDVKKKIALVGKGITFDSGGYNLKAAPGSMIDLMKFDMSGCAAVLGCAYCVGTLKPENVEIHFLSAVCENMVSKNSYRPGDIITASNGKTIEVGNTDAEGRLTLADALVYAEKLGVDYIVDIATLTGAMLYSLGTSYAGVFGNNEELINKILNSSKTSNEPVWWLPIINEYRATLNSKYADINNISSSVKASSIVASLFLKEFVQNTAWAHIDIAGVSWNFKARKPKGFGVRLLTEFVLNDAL

[4] = HepG2 cell cytotoxicity, dose response, cytotoxicity control for non-replicating M. tuberculosis project (AID 489018); type: functional; settings: Mycobacterium tuberculosis
[5] = Vero E6 cell cytotoxicity, dose response, cytotoxicity control for non-replicating M. tuberculosis project, secondary assay (AID 492998); type: functional, VeroE6; settings: Vero C1008
[6] = THP-1 cell cytotoxicity, dose response, cytotoxicity control for non-replicating M. tuberculosis project (AID 489025); type: functional
cells = type: functional
BJ [7] = assay: BJ-TERT-LT-ST fibroblast viability loss – cell-based, RAS-independent, luminescence, dose response (AID 1935); type: functional; settings: Homo sapiens;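 also: BJ fibroblasts immortalized with TERT plus LT and ST oncogenes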
[8] = DRD fibroblast viability loss – cell-based, non-viral oncogenic, luminescence, dose response (AID 1934); type: functional; settings: Homo sapiens
INS1 = assay: INS-1E survival protection against cytokine death – cell-based, luminescence, retest, dose response (AID 449756); type: functional; settings: Rattus norvegicus;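 also: cell death triggered by IL-1 beta plus TNF-alpha plus IFN-gamma mixture; protective hits raise ATP signal compared with cytokine alone wells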
BJ [9] = assay: cells; type: functional, cell-based; settings: Homo sapiens
BJ [10] = assay: BJ-TERT fibroblast viability loss – cell-based, RAS-independent, luminescence, dose response (AID 1933); type: functional; settings: Homo sapiens

Genome polyprotein, sequence (P29990 2492-3391 limits assumed): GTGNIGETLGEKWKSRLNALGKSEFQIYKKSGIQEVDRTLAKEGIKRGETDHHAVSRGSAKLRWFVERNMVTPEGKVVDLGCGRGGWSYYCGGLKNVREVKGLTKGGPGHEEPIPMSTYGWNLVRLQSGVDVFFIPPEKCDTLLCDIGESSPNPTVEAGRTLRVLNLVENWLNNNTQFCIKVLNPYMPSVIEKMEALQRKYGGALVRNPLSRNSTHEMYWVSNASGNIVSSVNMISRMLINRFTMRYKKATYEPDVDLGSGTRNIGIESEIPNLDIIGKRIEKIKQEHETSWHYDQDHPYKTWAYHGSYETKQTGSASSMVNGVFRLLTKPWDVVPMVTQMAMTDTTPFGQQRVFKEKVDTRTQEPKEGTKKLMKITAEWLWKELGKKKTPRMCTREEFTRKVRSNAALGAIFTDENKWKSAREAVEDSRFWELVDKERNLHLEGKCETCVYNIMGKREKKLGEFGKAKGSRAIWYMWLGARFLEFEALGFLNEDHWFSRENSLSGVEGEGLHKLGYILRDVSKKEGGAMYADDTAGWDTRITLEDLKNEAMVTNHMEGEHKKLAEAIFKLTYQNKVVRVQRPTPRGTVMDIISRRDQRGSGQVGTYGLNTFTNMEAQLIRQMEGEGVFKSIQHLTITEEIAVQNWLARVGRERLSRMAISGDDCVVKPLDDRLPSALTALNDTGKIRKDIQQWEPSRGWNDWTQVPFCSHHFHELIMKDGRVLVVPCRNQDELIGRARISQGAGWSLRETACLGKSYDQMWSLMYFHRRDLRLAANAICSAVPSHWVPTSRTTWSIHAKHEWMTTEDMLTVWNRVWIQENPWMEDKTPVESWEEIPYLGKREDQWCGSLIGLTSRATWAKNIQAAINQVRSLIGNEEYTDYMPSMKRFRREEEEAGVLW

Cc1ccc(S(=O)(=O)c2cnc(-c3ccccc3)nc2N2CCN(C)CC2)cc1
EC50 [1]: 6.68 µM (active)

O=S(=O)(NNC(=S)Nc1ccc(S(=O)(=O)Nc2ncccn2)cc1)c1ccc(Br)cc1
EC50 [2]: 5.04 µM (active)
EC50 [3]: 2.97 µM (inconclusive)

O=C1Nc2ccc(F)cc2C12Nc1ccccc1-c1nnc(SCc3ccccc3)nc1O2 (stereo not given)
IC50 (Genome polyprotein): 46.2 µM (active)

Cc1ccc(-n2c(SCC(=O)OC(C)C)nnc2-c2ccco2)cc1
IC50 (Leucine aminopeptidase): 31.2 µM (active)

OCCCNc1ncnc2sc3c(c12)CCN(Cc1ccccc1)C3
EC50 [2]: 24.9 µM (active)
EC50 [3]: > 300 µM (not active)

COc1cccc(NC(=O)CSc2nc3c(oc4ccccc43)c(=O)[nH]2)c1
IC50 (Leucine aminopeptidase): < 1 µM (active)

CCOC(=O)/C(C#N)=C\C=C1C=CN(C)C=C1
IC50 (Leucine aminopeptidase): 90 µM (active)

CCc1nc2ccccc2n1Cc1ccccc1OC
EC50 [1]: 10.6 µM (active)

Cc1cccc(-c2cc3nc(C)c(C)c(NCCCn4ccnc4)n3n2)c1
CC50 [4]: 16.4 µM (active)
CC50 [5]: > 20 µM (active)
CC50 [6]: 20.6 µM (active)
IC50 (cells): 9.68 µM (active)

COc1ccc(/C=C2\CCCC(C(=O)C(F)(F)F)=C2O)cc1OC
EC50 [2]: 254 µM (inconclusive)
EC50 [3]: > 300 µM (not active)

Cc1ccccc1[N+]1=C2CCCCN2C(O)(c2cccs2)C1 (stereo not given)
EC50 [1]: 2.37 µM (active)

C/C(=N\NC(=O)c1ccccc1NC(=O)c1ccc(Cl)cc1)c1ccncc1
EC50 (BJ [7]): 2.18 µM (inconclusive)
EC50 [8]: 1.12 µM (active)
AC50 (INS1): 0.902 µM (active)
EC50 (BJ [9]): 1.21 µM (inconclusive)
EC50 (BJ [10]): 0.856 µM (inconclusive)

Cc1n[nH]c(O)c1/C=N/N1CCOCC1
EC50 [2]: > 300 µM (not active)
EC50 [3]: > 300 µM (not active)

O=C(O)c1cccc(-c2ccc(/C=N/NC(=O)C3COc4ccccc4O3)o2)c1 (stereo not given)
IC50 (Leucine aminopeptidase): 45.6 µM (active)
